Where two headings read alike, the source gives them in different places.
Key:
[1] = tested on: patients with PAH; assay: Phase IIA randomized, double-blind, placebo-controlled clinical trial of tacrolimus in PAH (NCT01647945); format: in vivo, human
Experimental: Tacrolimus was selected as the agent for increasing BMPR2 signaling. A phase IIA trial to assess the safety and tolerability of different doses tacrolimus (goal blood level <2 ng/ml, 2-3 ng/ml, 3-5 ng/ml) vs Placebo was conducted (Clinical Trials Identifier: NCT01647945). The secondary endpoints were change in clinical worsening, change in 6-min walk distance, NT-pro BNP, Uric Acid, and novel echo parameters. The phase IIA trial was a single center trial with 23 patients. This study was open to male or female subjects, 18-70 years of age, with pulmonary hypertension. The Inclusion and Exclusion criteria used are below:
• 1. Age ≥18 and <70 years • 2. Diagnosis of WHO Group I Pulmonary Arterial Hypertension (PAH) (Idiopathic (I)PAH, Heritable PAH (including Hereditary Hemorrhagic Telangiectasia), Associated (A)PAH (including collagen vascular disorders, drugs+toxins exposure, congenital heart disease, and portopulmonary disease). • 3. Stable on active PAH treatment including any prostacycline or phosphodiesterase inhibitors and the endothelin antagonist Ambrisentan alone or in combination (stability defined as: <10% change in 6 MWD, no change in NYHA class, no hospitalization or addition of PAH therapy for at least 3 months). • 4. Previous Right Heart Catheterization (RHC) that documented: • a. Mean PAP ≥25 mmHg. • b. Pulmonary capillary wedge pressure <15 mmHg. • c. Pulmonary Vascular Resistance ≥3.0 Wood units or 240 dynes/see/cm5 • 5. All NYHA/WHO functional classes. • 6. Willingness of female subjects to use birth control, or be post-menopausal, or status post hysterectomy.
• 1. WHO Group II-V Pulmonary Hypertension. • 2. Current or prior experimental PAH treatments within the last 6 months (including but not limited to tyrosine kinase inhibitors, rho-kinase inhibitors, or cGMP modulators). • 3. Current active treatment with the dual endothelin receptor antagonist bosentan. • 4. Total lung Capacity (TLC)<60% predicted; if TLC b/w 60 and 70% predicted, high resolution computed tomography must be available to exclude significant interstitial lung disease. • 5. Forced expiratory volume (FEV1)/Forced Vital Capacity (FVC)<70% predicted and FEV1<60% predicted • 6. Significant left-sided heart disease (based on screening Echocardiogram): • a. Significant aortic or mitral valve disease • b. Diastolic dysfunction≥Grade II • c. Left Ventricle (LV) systolic function <45% • d. Pericardial constriction • e. Restrictive cardiomyopathy • f. Significant coronary disease with demonstrable ischemia. • 7. Chronic renal insufficiency defined as an estimated creatinine clearance <30 ml/min (by Modification of diet in renal disease (MDRD) equation). • 8. Current atrial arrhythmias not under optimal control. • 9. Uncontrolled systemic hypertension: SBP>160 mm or DBP>100 mm • 10. […]

[2] = tested on: PAH patients; details: for symptoms and exercise capacity: within 1 month of initiation, ambrisentan
[3] = tested on: BMPR2 signaling (BRE from the Id1 promoter linked to luciferase, C2C12 mouse myoblastoma reporter cells); assay: BRE-Luc reporter high throughput screen for compounds that increase BMPR2 signaling; format: cell-based; details: screen of library of >3,600 compounds
Experimental: A C2C12 mouse myoblastoma reporter cells line where the BRE (BMP Response Element) from the Id1 promoter (a main downstream target of BMP signaling) was linked to luciferase (BRE-Luc) was used to identify compounds that increase BMPR2 signaling. Thus, activation of the BMP pathway was measured by luminescence. A high throughput screen of a library containing greater than 3,600 compounds was used.

[4] = all three patients, first 3-6 months
[5] = patient #1, after 3 months of treatment
[6] = patient #1, baseline, 3 and 6 months
[7] = patient #2, 12 months follow-up
[8] = patient #2, baseline, 3 and 6 months
[9] = patient #2, within 3 months of treatment

Structure (SMILES): C=CC[C@@H]1/C=C(\C)C[C@H](C)C[C@H](OC)[C@H]2O[C@@](O)(C(=O)C(=O)N3CCCC[C@H]3C(=O)O[C@H](/C(C)=C/[C@@H]3CC[C@@H](O)[C@H](OC)C3)[C@H](C)[C@@H](O)CC1=O)[C@H](C)C[C@@H]2OC [Tacrolimus, tacrolimus]
- BMPR2 signaling (biomarker data) ([1]; PAH patients): increase in BMPR2 signaling
- drug-related serious adverse events ([1]; all tested doses): no drug-related serious adverse events
- incidences of hypertension or cardiovascular events ([1]; all tested doses): no incidences of hypertension or cardiovascular events
- tolerability ([1]; all tested doses (goal blood level <2, 2-3, 3-5 ng/ml)): well tolerated
- REVEAL risk score ([2]; all 3 patients): improved
- hospital admission for worsening of heart failure ([2]; all three patients, during treatment): None of the patients was admitted
- 6 MWD [2, 4]: increase
- NT-pro BNP [2, 4]: decrease
- tolerability ([2]; human, in vivo): tolerated low-dose tacrolimus very well
- infections ([2]; human, in vivo, iv): did not report an increase of infections
- symptoms and exercise capacity ([2]; patient #1 (IPAH), trough goal 1.5-2.5 ng/mL, on epoprostenol, sildenafil): substantial improvement
- PAH associated hospitalizations ([2]; patient #1, 12 months after initiation (3 in the 12 months prior)): free of any PAH associated hospitalizations
- NT-proBNP [2, 5]: 678 pg/mL
- NYHA class symptoms [2, 5]: NYHA Class I
- improvement in 6 MWD [2, 5]: approximately 100 meters
- lowering of NT-proBNP [2, 5]: > 50%
- RV ejection fraction (RVEF), cMRI [2, 6]: stable
- RV end-diastolic volume index (RVEDVi), cMRI [2, 6]: stable
- RV stroke volume index (RVSVi), cMRI [2, 6]: increased
- cardiac index (CI), cMRI [2, 6]: increased
- REVEAL risk score ([2]; patient #1, on treatment (11 at transplant listing)): 3
- lung transplant list status ([2]; patient #1, within 2 months): placed on a status 7 (hold) for transplantation
- symptoms and exercise capacity ([2]; patient #2 (systemic sclerosis associated PAH), on treprostinil, sildenafil, dopamine): some improvement
- PAH related hospitalizations ([2]; patient #2, 12 months after initiation (4 in the 15 months prior)): free from any PAH related hospitalizations
- CO [2, 7]: 3.4 L/min
- NT-pro BNP [2, 7]: 1,895 pg/mL
- NT-pro BNP reduction compared to baseline [2, 7]: 30%
- NYHA symptoms [2, 7]: stable NYHA III symptoms
- PAWP [2, 7]: 10 mmHg
- PVR [2, 7]: 14.1 WU
- SVO2 [2, 7]: 59%
- increase in 6 MWD [2, 7]: 94 meter
- mPAP [2, 7]: 58 mmHg
- mRAP [2, 7]: 7 mmHg
- CI, cMRI [2, 8]: improvement
- RVEDVi, cMRI [2, 8]: stable
- RVEF, cMRI [2, 8]: substantial improvement
- RVSVi, cMRI [2, 8]: improvement
- REVEAL risk score ([2]; patient #2, on treatment (from 12)): 11
- NT-pro BNP ([2]; patient #2, within 1 month (from 2,669)): 1,895 pg/mL
- 6 MWD improved by [2, 9]: 18 meters
- NT-pro BNP [2, 9]: 1,580 pg/mL
- NYHA symptoms [2, 9]: stable NYHA III symptoms
- symptoms ([2]; patient #3 (drugs and toxins associated PAH), over a 5-months period, on treprostinil, sildenafil): symptomatic improvement
- BMPR2 signaling (activation of the BMP pathway measured by luminescence) [3]: increased BMPR2 signaling
